The target in assay [1] is T1, rat and human TRPV2 chimera RRH (Rattus norvegicus, UniProt Q9WUD2, A714S/D654T/DEL680-680/E685A/G695P/H651S/H683Q/K690T/K717Q/L688M/N655D/R687V/R694K/S723C/T698S).
T1 construct: expressed in transfected cells; host or cells: HEK293, transient, pCI-neo
T1 sequence (Q9WUD2 with tags, fused parts or gaps H651S/D654T/N655D/DEL680-680/H683Q/E685A/R687V/L688M/K690T/R694K/G695P/T698S/A714S/K717Q/S723C): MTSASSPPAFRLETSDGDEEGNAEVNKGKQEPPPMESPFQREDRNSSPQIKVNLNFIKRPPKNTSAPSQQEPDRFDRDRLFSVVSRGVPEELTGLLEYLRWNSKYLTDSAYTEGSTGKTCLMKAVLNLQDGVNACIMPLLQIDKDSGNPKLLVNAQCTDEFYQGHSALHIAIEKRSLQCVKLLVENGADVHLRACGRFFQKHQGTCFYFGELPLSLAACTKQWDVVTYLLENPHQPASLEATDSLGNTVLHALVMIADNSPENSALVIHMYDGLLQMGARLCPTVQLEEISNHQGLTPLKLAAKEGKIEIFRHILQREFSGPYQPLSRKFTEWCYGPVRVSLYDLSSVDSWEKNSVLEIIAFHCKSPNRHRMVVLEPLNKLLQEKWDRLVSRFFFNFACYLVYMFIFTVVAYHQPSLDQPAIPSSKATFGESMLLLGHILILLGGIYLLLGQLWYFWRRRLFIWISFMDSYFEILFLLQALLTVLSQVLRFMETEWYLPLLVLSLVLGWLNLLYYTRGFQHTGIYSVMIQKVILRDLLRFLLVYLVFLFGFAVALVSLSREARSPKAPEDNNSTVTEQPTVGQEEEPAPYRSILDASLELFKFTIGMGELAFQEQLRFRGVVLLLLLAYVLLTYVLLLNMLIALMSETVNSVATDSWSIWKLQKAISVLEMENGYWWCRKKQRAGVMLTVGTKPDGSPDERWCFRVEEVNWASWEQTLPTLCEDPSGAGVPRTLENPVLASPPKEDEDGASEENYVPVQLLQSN
The assay is described as follows: Calcium mobilization in HEK293 cells expressing TRPV2 chimera RRH. Type of assay: cell-based. Conditions: expressed separately in HEK cells. As for the experimental part: The deletion mutant constructs were then transfected into HEK293 cells using Fugene 6 reagent (Roche) as per the manufacturer's instructions. At 24 hours post-transfection, the cells were harvested and replated in fresh DMEM medium supplemented with 10% fetal bovine serum, 100 units/ml penicillin, and 100 μg/ml streptomycin. The cells were distributed onto poly-D-Lysine coated 96-or 384-well plates at a density of approximately 40,000 and 10,000 cells per well, respectively. At approximately 48 hours post-transfection, the medium was removed from the assay plate and replaced with Calcium 3 Dye Buffer (Molecular Devices) using the protocol available from the manufacturer. Calcium mobilization was triggered using Δ^9-THC or 2-APB or elevated temperature buffer and measured using either FLIPR or FLEX STATION instruments.
Based on the predicted topology and primary sequence features of TRPV2, TRPV2 are divided into 3 major domains: 1) the amino-terminal intracellular domain; 2) the transmembrane domain; and 3) the carboxyl-terminal intracellular domain. For a chimera, each domain can be of rat (R) or human (H) origin. Three rat and human TRPV2 chimera were constructed and tested herein. RRH (SEQ ID NO:15) was a chimera comprising rat 1-392 aa, rat 393-646 aa, and human 647-764 aa. RHR (SEQ ID NO:16) was a chimera comprising rat 1-392, human 391-646, and rat 647-761. […]

In assay [2] the test system is untransfected HEK293 cells. The experiment in a line: Whole-cell patch clamp, untransfected HEK293 cells (control). Type of assay: cell-based. Conditions: 100 μM; data not shown. As for the experimental part: To further confirm the Δ^9-THC effect on TRPV2, whole-cell patch clamp studies were performed. The extracellular solution contained (in mM): NaCl, 132; CaCl, 1.8; KCl, 5.4; MgCl2, 0.8; HEPES, 10; glucose, 10; pH=7.4. The intracellular solution used to fill recording pipettes contained (in mM): CsCl, 145; EGTA, 5; HEPES, 10; glucose, 5; pH=7.4. Recordings were performed using the conventional whole-cell patch clamp technique, 2-3 days after transient transfection of human TRPV2 into HEK293 cell or 1-2 days after plating HEK293 cells stably expressing rat TRPV2 onto glass coverslips. Currents were amplified by a patch clamp amplifier and filtered at 2 kHz (Axopatch 200B), sampled at 10 kHz using Digidata 1322A and acquired and analyzed with pClamp 9.0 (all instruments from Molecular Devices, CA). A 600 ms voltage ramp was given once every five seconds from −100 mV to +60 mV. The holding potential between voltage ramps was −100 mV. Extracellular solutions were applied to the cell at 0.5 ml/min via a gravity-fed perfusion system. All experiments were performed at 22° C.

As to Delta-9-tetrahydrocannabinol [Δ^9-THC], the “response of chimera RRH to the compound” value in assay [1] was “poorly”. Further, the “current above control level in untransfected HEK293 cells” value in assay [2] was “no current above control level”.
